# Columns and labels:
# NBD1 = target: T1, NBD1 (Homo sapiens, UniProt P13569); assay: Aggregation analysis using differential static light scattering (DSLS), thermal stability of NBD1 (ΔTagg); format: binding; details: ΔTagg versus DMSO control, NBD1 0.2 mg/ml
# T1 construct: Purified recombinant NBD1 was produced using previously described methods; made in house
# Outline: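 NBD1 0.2 mg/ml, S200 buffer (50 mM Tris-HCl, 150 mM NaCl, 5 mM MgCl2, 2 mM ATP, 2 mM DTT, pH7.6) + 1% glycerol; cpd in DMSO; oil overlay. Ramp 25→70° C. at 1° C./min, DSLS images every 0.5° C. ΔTagg = Tagg (inflection) − mean DMSO Tagg.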
# CFTR = target: T2, CFTR (Homo sapiens, UniProt P13569, DEL508-508); assay: TECC24 AUC fold over DMSO @10 μM, CFTR-mediated transepithelial chloride transport in CF-HBE cells; format: cell-based; details: test agent AUC divided by DMSO vehicle AUC, primary CF-HBE cells, ΔF508 homozygous donor, 48 hours incubation
# T2 construct: Primary human bronchial epithelial cells from a ΔF508 homozygous CF donor; host or cells: primary human bronchial epithelial cells (CF-HBE), ΔF508 homozygous donor
# Outline: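 ΔF508-homozygous primary bronchial epithelial cells incubated 48 h at 36.5° C with compound (10 μM) in IL-13-containing medium, then TECC24 current-clamp recording in pH 7.4 Hepes saline with benzamil 10 μM, forskolin 10 μM, then CFTR inhibitor-172 20 μM. Equivalent Cl− current AUC between forskolin and inhibitor, expressed as fold over DMSO.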
# T1 sequence (P13569 423-646 limits assumed): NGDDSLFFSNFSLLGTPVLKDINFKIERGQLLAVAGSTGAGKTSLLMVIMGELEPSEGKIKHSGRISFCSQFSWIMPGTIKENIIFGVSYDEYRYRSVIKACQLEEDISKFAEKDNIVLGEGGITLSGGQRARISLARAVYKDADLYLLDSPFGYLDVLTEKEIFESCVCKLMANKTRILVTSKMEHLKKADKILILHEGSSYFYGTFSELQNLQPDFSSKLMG
# T2 sequence (P13569 with tags, fused parts or gaps DEL508-508): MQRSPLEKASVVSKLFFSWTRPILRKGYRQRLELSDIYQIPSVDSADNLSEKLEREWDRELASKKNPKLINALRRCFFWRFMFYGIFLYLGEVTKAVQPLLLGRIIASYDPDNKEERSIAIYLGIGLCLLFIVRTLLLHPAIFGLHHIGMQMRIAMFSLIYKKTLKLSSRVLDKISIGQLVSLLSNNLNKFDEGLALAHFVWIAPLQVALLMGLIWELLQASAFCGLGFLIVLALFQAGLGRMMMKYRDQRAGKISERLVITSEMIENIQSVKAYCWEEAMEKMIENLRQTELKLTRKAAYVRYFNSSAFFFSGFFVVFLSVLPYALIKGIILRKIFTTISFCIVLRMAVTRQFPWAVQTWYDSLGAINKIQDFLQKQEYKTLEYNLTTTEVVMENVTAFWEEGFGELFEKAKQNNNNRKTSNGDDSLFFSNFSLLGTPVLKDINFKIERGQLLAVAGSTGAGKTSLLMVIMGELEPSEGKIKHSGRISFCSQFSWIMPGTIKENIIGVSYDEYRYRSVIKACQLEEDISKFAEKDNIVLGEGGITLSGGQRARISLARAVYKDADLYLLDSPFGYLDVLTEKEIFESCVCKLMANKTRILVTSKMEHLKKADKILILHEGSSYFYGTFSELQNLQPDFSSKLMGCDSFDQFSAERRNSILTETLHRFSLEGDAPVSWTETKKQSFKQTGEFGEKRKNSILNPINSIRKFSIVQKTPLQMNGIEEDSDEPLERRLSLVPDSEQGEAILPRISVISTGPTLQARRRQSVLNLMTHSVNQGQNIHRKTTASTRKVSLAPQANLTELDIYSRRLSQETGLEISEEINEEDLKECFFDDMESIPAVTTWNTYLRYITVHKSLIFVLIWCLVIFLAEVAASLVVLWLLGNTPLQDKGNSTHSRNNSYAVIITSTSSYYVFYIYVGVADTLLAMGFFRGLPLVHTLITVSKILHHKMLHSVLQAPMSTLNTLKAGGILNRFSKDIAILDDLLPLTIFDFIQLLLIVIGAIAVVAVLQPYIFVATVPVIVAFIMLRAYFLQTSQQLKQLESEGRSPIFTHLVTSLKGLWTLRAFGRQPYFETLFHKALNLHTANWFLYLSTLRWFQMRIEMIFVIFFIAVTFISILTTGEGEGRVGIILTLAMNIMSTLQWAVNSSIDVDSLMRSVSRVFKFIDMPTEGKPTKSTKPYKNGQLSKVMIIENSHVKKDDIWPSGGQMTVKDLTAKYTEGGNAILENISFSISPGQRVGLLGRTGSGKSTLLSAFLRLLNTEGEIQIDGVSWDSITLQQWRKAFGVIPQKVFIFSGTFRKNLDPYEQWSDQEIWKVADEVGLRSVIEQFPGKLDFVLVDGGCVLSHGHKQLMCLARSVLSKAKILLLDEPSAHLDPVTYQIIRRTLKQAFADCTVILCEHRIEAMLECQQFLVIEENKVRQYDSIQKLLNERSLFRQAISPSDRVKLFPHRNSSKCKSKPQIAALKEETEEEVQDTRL
Compound,DSLS 3D (100 μM ΔT) (NBD1),"TECC (AUC, 10 μM) (CFTR)"
"O=C1CCCS(=O)(=O)CCc2c(c(F)cc3[nH]ccc23)Oc2ccc(F)c(c2)-c2ncc([nH]2)C(c2ccccc2)N1 (single isomer, unassigned) [Compound 81, 22,28-difluoro-12,12-dioxo-6-phenyl-24-oxa-12lambda6-thia-3,7,19,30 tetrazapentacyclo[23.3.1.12,5.015,23.016,20]triaconta-1(29),2,4,15,17,20,22,25,27-nonaen-8-one]",A (an ΔTagg value less than or equal to 5 °C is marked “A”),A (a TECC value less than 12 is marked “A”)
"O=C(O)CCc1cccc(C2NC(=O)CCCS(=O)(=O)CCc3c(c(F)cc4[nH]ccc34)Oc3ccc(F)c(c3)-c3ncc2[nH]3)c1 (single isomer, unassigned) [Compound 82, 3-[3-[22,28-difluoro-8,12,12-trioxo-24-oxa-12lambda6-thia-3,7,19,30-tetrazapentacyclo [23.3.1.12,5.015,23.016,20]-triaconta-1(29),2,4,15,17,20,22,25,27-nonaen-6-yl]phenyl]propanoic acid]",C (a value greater than 10 °C and less than or equal to 25 °C is marked “C”),A (a TECC value less than 12 is marked “A”)
"O=C1CCCS(=O)(=O)CCc2c(c(F)cc3[nH]ccc23)Oc2ccc(F)c(c2)-c2ncc([nH]2)C(c2ccccc2)N1 (single isomer, unassigned) [Compound 83, 22,28-difluoro-12,12-dioxo-6-phenyl-24-oxa-12lambda6-thia-3,7,19,30-tetrazapentacyclo [23.3.1.12,5.015,23.016,20]-triaconta-1(29),2,4,15,17,20,22,25,27-nonaen-8-one]",B (a value above 5 °C and less than or equal to 10 °C is marked “B”),A (a TECC value less than 12 is marked “A”)
"Cc1cn2nc1-c1cc(ccc1F)Oc1c(F)cc3[nH]ccc3c1CCS(=O)(=O)CC(C)(C)COCC2c1cccc(CCC(=O)O)c1 (single isomer, unassigned) [Compound 84B, 3-[3-(22,28-difluoro-3,10,10-trimethyl-12,12-dioxo-8,24-dioxa-12lambda6-thia-5,19,30-triazapentacyclo[23.3.1.12,5.015,23.016,20]triaconta-1(29),2(30),3,15,17,20,22,25,27-nonaen-6-yl)phenyl]propanoic acid]",A (an ΔTagg value less than or equal to 5 °C is marked “A”),A (a TECC value less than 12 is marked “A”)
"Cc1cnn2c1-c1cc(ccc1F)Oc1c(F)cc3[nH]ccc3c1CCS(=O)(=O)CC(C)(C)COCC2c1cccc(CCC(=O)O)c1 (single isomer, unassigned) [Compound 85, 3-[3-(23,29-difluoro-3,11,11-trimethyl-13,13-dioxo-9,25-dioxa-13λ6-thia-5,6,20-triazapentacyclo[24.3.1.02,6.016,24.017,21]triaconta-1(30),2,4,16,18,21,23,26,28-nonaen-7-yl)phenyl]propanoic Acid]",A (an ΔTagg value less than or equal to 5 °C is marked “A”),A (a TECC value less than 12 is marked “A”)
"CC1(C)CS(=O)(=O)CCc2c(c(F)cc3[nH]ccc23)Oc2ccc(F)c(c2)-c2ccn(n2)C(c2cccc(CCC(=O)O)c2)CCO1 (single isomer, unassigned) [Compound 87A, 3-[3-(22,28-difluoro-10,10-dimethyl-12,12-dioxo-9,24-dioxa-12lambda6-thia-5,19,30-triazapentacyclo[23.3.1.12,5.015,23.016,20]-triaconta-1(29),2(30),3,15,17,20,22,25,27-nonaen-6-yl)phenyl]propanoic acid]",B (a value above 5 °C and less than or equal to 10 °C is marked “B”),A (a TECC value less than 12 is marked “A”)
"CC1(C)CS(=O)(=O)CCc2c(c(F)cc3[nH]ccc23)Oc2ccc(F)c(c2)-c2ccn(n2)C(c2cccc(CCC(=O)O)c2)CCO1 (single isomer, unassigned) [Compound 87B, 3-[3-(22,28-difluoro-10,10-dimethyl-12,12-dioxo-9,24-dioxa-12lambda6-thia-5,19,30-triazapentacyclo[23.3.1.12,5.015,23.016,20]-triaconta-1(29),2(30),3,15,17,20,22,25,27-nonaen-6-yl)phenyl]propanoic acid]",C (a value greater than 10 °C and less than or equal to 25 °C is marked “C”),A (a TECC value less than 12 is marked “A”)
"CCn1nc2nc1-c1cc(ccc1F)Oc1c(F)cc3[nH]ccc3c1CCS(=O)(=O)CC(C)(C)CCCC2(C)c1cccc(CCC(=O)O)c1 (single isomer, unassigned) [Compound 91A, 3-[3-(3-ethyl-22,28-difluoro-6,10,10-trimethyl-12,12-dioxo-24-oxa-12lambda6-thia-3,4,19,30-tetrazapentacyclo[23.3.1.12,5.015,23.016,20]triaconta-1(29),2(30),4,15,17,20,22,25,27-nonaen-6-yl)phenyl]propanoic Acid]",C (a value greater than 10 °C and less than or equal to 25 °C is marked “C”),A (a TECC value less than 12 is marked “A”)
"CCn1nc2nc1-c1cc(ccc1F)Oc1c(F)cc3[nH]ccc3c1CCS(=O)(=O)CC(C)(C)CCCC2(C)c1cccc(CCC(=O)O)c1 (single isomer, unassigned) [Compound 91B, 3-[3-(3-ethyl-22,28-difluoro-6,10,10-trimethyl-12,12-dioxo-24-oxa-12lambda6-thia-3,4,19,30-tetrazapentacyclo[23.3.1.12,5.015,23.016,20]triaconta-1(29),2(30),4,15,17,20,22,25,27-nonaen-6-yl)phenyl]propanoic Acid]",A (an ΔTagg value less than or equal to 5 °C is marked “A”),A (a TECC value less than 12 is marked “A”)
"Cn1nc2nc1-c1cccc(c1)Oc1c(F)cc3[nH]ccc3c1CCS(=O)(=O)CC(C)(C)CCCC2(C)c1cccc(CCC(=O)O)c1 (single isomer, unassigned) [Compound 95A, 3-[3-(22-fluoro-3,6,10,10-tetramethyl-12,12-dioxo-24-oxa-12λ6-thia-3,4,19,30-tetrazapentacyclo[23.3.1.12,5.015,23.016,20]triaconta-1(29),2(30),4,15,17,20,22,25,27-nonaen-6-yl)phenyl]propanoic Acid]",A (an ΔTagg value less than or equal to 5 °C is marked “A”),A (a TECC value less than 12 is marked “A”)
"Cn1nc2nc1-c1cccc(c1)Oc1c(F)cc3[nH]ccc3c1CCS(=O)(=O)CC(C)(C)CCCC2(C)c1cccc(CCC(=O)O)c1 (single isomer, unassigned) [Compound 95B, 3-[3-(22-fluoro-3,6,10,10-tetramethyl-12,12-dioxo-24-oxa-12λ6-thia-3,4,19,30-tetrazapentacyclo[23.3.1.12,5.015,23.016,20]triaconta-1(29),2(30),4,15,17,20,22,25,27-nonaen-6-yl)phenyl]propanoic Acid]",C (a value greater than 10 °C and less than or equal to 25 °C is marked “C”),A (a TECC value less than 12 is marked “A”)
"[2H]C([2H])([2H])C1(c2cccc(CCC(=O)O)c2)CCCC(C)(C)CS(=O)(=O)CCc2c(c(F)cc3[nH]ccc23)Oc2ccc(F)c(c2)-c2nc1nn2C (single isomer, unassigned) [Compound 96A, 3-[3-[22,28-difluoro-3,10,10-trimethyl-12,12-dioxo-6-(trideuteriomethyl)-24-oxa-12lambda6-thia-3,4,19,30-tetrazapentacyclo-[23.3.1.12,5.015,23.016,20]triaconta-1(29),2(30),4,15,17,20,22,25,27-nonaen-6-yl]phenyl]propanoic Acid]",C (a value greater than 10 °C and less than or equal to 25 °C is marked “C”),A (a TECC value less than 12 is marked “A”)
"[2H]C([2H])([2H])C1(c2cccc(CCC(=O)O)c2)CCCC(C)(C)CS(=O)(=O)CCc2c(c(F)cc3[nH]ccc23)Oc2ccc(F)c(c2)-c2nc1nn2C (single isomer, unassigned) [Compound 96B, 3-[3-[22,28-difluoro-3,10,10-trimethyl-12,12-dioxo-6-(trideuteriomethyl)-24-oxa-12lambda6-thia-3,4,19,30-tetrazapentacyclo-[23.3.1.12,5.015,23.016,20]triaconta-1(29),2(30),4,15,17,20,22,25,27-nonaen-6-yl]phenyl]propanoic Acid]",A (an ΔTagg value less than or equal to 5 °C is marked “A”),A (a TECC value less than 12 is marked “A”)

# — patent US12649750B2, “Macrocyclic compounds, compositions, and methods of using thereof” (Sionna Therapeutics Inc., priority 2022, dated 2026)
